Laboratory results from patent publication US20260258084A1, “New Peptides as Selective IL-23 Receptor Antagonists” (Sanofi, priority 2022, published 2026).
Converted amounts (≈) assume the structure as drawn. Read-outs that look alike come from different tables or passages of the source. Positions of bridges follow the written chain, without caps; N, C: chain ends. Non-standard residues stand in square brackets, D forms with d. Residues, ends and D or L forms follow the SMILES beside them. *: point of attachment. Trp(7-Me) = Cc1cccc2c(C[C@H](N)C(=O)O)c[nH]c12; 2Nal = N[C@@H](Cc1ccc2ccccc2c1)C(=O)O; 3Pal = N[C@@H](Cc1cccnc1)C(=O)O; αMeL = CC(C)C[C@](C)(N)C(=O)O; Thp = NC1(C(=O)O)CCOCC1; Me2NCH2CH2 = CN(C)CC*; Aib = CC(C)(N)C(=O)O; Ava = NCCCCC(=O)O; βAla = NCCC(=O)O

Legend:
[1] = Chemical stability assessment of peptides (relative purity loss); type: physicochemical; details: 24 hours at 37° C.; for Chemical stability (relative purity loss) Buffer pH 1.2: 50 mM HCl pH 1.2 + acetonitrile (1:1); for Chemical stability (relative purity loss) Buffer pH 6.5: 50 mM phosphate buffer pH 6.5 + acetonitrile (1:1); for Chemical stability (relative purity loss) Buffer pH 7.4: 50 mM phosphate buffer pH 7.4 + acetonitrile (1:1)
Outline: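 Peptide solutions at 1 mg/ml (purity-corrected) in 1:1 acetonitrile with 50 mM HCl pH 1.2, or 50 mM phosphate pH 6.5 or pH 7.4, held 24 hours at 2° C. and 37° C. Supernatants analysed by UHPLC-UV; relative purity loss taken as percent drop in peak-area purity from 0 to 24 hours at 37° C.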

Pancreatin = assay: Protease stability in simulated intestinal fluid (Pancreatin-SIF, FaSSIF); type: in vitro ADME; details: 1 μM peptide, 37° C.; for remaining at 1 h, 1 µM: 60 min, read-out: FaSSIF 60 (min), remaining percent of peptide; for remaining at 2 h, 1 µM: 120 min, read-out: FaSSIF 120 (min), remaining percent of peptide; for remaining at 4 h, 1 µM: 240 min, read-out: FaSSIF 240 (min), remaining percent of peptide
Outline: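 LC-MS/MS peak areas at 0, 60, 120 and 240 min, normalised to time 0 as 100%, give percent remaining. Reactions used 1 μM final peptide at 37° C in pancreatin-SIF (1 mg pancreatin in 10 mL SIF concentrate) and were stopped with ethanol containing 0.1% HCOOH.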

[2] = Solubility testing of peptides at different pH; type: physicochemical; details: target concentration 1 mg/ml, 2 hours agitation
Outline: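 Four buffers were used: 50 mM HCl pH 1.2 and 50 mM phosphate at pH 6.5, 7.4 and 9.0, each receiving dried-down compound at a 1 mg/mL target. After 2 h gentle shaking and 0.45 μm filtration, UV peak areas were compared with a DMSO standard curve of known concentration, allowing for extinction coefficients.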

Pepsin = tested on: T1, Pepsin; assay: Protease stability in simulated gastric fluid (Pepsin-SGF, FaSSGF); type: in vitro ADME; details: simulated gastric fluid with pepsin (Pepsin-SGF), 60 min, 1 μM peptide, 37° C., read-out: FaSSGF 60 (min), remaining percent of peptide
T1 construct: purchased Merck Millipore
Outline: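 LCMS/MS peak areas, normalised to the time-0 sample as 100%, give percent remaining. Conditions: 37° C incubation of 1 μM final peptide in simulated gastric fluid with pepsin; ethanol/0.1% HCOOH quench at 0, 60, 120, 240 min.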

[3] = target: T2, human interleukin-23 receptor (recombinant human IL-23R-Fc chimera) (Homo sapiens, UniProt Q5VWK5); assay: Human ELISA IL23/IL23R (assay for specific human IL23R antagonists); type: binding; details: Table 10; read-out: Human ELISA IL23/IL23R IC50
T2 construct: Fc (IgG Fc fusion)
Outline: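 Competition format: peptide dilutions compete for IL23R-Fc chimera (0.1 μg/ml final, 60 min, room temperature) binding to immobilized human IL23 coated at […] overnight at 4 °C. Read-out is fluorogenic HRP signal from goat anti-hu-IgG1 detecting captured receptor.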

[4] = 50 mM HCl buffer, 50 mM HCl pH 1.2, read-out: Solubility Buffer pH 1.2
[5] = 50 mM phosphate buffer pH 6.5, read-out: Solubility Buffer pH 6.5
[6] = 50 mM phosphate buffer pH 7.4, read-out: Solubility Buffer pH 7.4
[7] = 50 mM phosphate buffer pH 9.0, read-out: Solubility Buffer pH 9.0

Row | Chemical stability (relative purity loss) Buffer pH 1.2 [1] [%] | Chemical stability (relative purity loss) Buffer pH 6.5 [1] [%] | Chemical stability (relative purity loss) Buffer pH 7.4 [1] [%] | remaining at 1 h, 1 µM (Pancreatin) [%] | remaining at 2 h, 1 µM (Pancreatin) [%] | remaining at 4 h, 1 µM (Pancreatin) [%] | solubility at 2 h [2, 4] [µg/mL] | solubility at 2 h [2, 5] [µg/mL] | solubility at 2 h [2, 6] [µg/mL] | solubility at 2 h [2, 7] [µg/mL] | remaining at 1 h, 1 µM (Pepsin) [%] | IC50 [3] [pM] | Compound
1 | 12.5 | 1.3 | 2.8 | 80 | 80 | 76 | ≥ 1060 | ≥ 1040 | ≥ 990 | ≥ 1040 | 100 | 280 | CC(=O)NCCCC[C@@H]1NC(=O)[C@H](Cc2c[nH]c3c(C)cccc23)NC(=O)[C@H]([C@@H](C)O)NC(=O)[C@H](CC(N)=O)NC(=O)[C@@H]2CSSC[C@H](NC1=O)C(=O)N[C@@H](Cc1ccc(OCCN(C)C)cc1)C(=O)N[C@@H](Cc1ccc3ccccc3c1)C(=O)NC(C)(C)C(=O)N[C@H](C(=O)N[C@@H](CC(N)=O)C(=O)N[C@@H](Cc1c[nH]cn1)C(=O)NCCC(N)=O)CCC(=O)NCCCCC(=O)N2 [compound 48] ([Ava]CNT[Trp(7-Me)]K(Ac)CY(Me2NCH2CH2)[2Nal][Aib]ENH[βAla]-NH2; disulfide 2-7; lactam N-11)
2 | 11.6 | 1.2 | 1.4 | 85 | 75 | 74 | ≥ 1110 | ≥ 1090 | ≥ 1050 | ≥ 1040 | 100 | 330 | CC(=O)NCCCC[C@@H]1NC(=O)[C@H](Cc2c[nH]c3c(C)cccc23)NC(=O)[C@H]([C@@H](C)O)NC(=O)[C@H](CC(N)=O)NC(=O)[C@@H]2CSSC[C@H](NC1=O)C(=O)N[C@@H](Cc1ccc(OCCN(C)C)cc1)C(=O)N[C@@H](Cc1ccc3ccccc3c1)C(=O)NC1(CCOCC1)C(=O)N[C@H](C(=O)N[C@@H](CC(N)=O)C(=O)N[C@@H](Cc1c[nH]cn1)C(=O)NCCC(N)=O)CCC(=O)NCCCCC(=O)N2 [compound 49] ([Ava]CNT[Trp(7-Me)]K(Ac)CY(Me2NCH2CH2)[2Nal][Thp]ENH[βAla]-NH2; disulfide 2-7; lactam N-11)
3 | 13.0 | 0.7 | 1.5 | 95 | 85 | 85 | ≥ 1000 | ≥ 980 | 670 (≈ 353 µM) | 440 (≈ 232 µM) | 99 | 290 | CC(=O)NCCCC[C@@H]1NC(=O)[C@H](Cc2c[nH]c3c(C)cccc23)NC(=O)[C@H]([C@@H](C)O)NC(=O)[C@H](CC(N)=O)NC(=O)[C@@H]2CSSC[C@H](NC1=O)C(=O)N[C@@H](Cc1ccc(OCCN(C)C)cc1)C(=O)N[C@@H](Cc1ccc3ccccc3c1)C(=O)N[C@@](C)(CC(C)C)C(=O)N[C@H](C(=O)N[C@@H](CC(N)=O)C(=O)N[C@@H](Cc1c[nH]cn1)C(=O)NCCC(N)=O)CCC(=O)NCCCCC(=O)N2 [compound 50] ([Ava]CNT[Trp(7-Me)]K(Ac)CY(Me2NCH2CH2)[2Nal][αMeL]ENH[βAla]-NH2; disulfide 2-7; lactam N-11)
4 | 17.1 | 0.2 | 0.7 | 92 | 86 | 78 | ≥ 1020 | ≥ 930 | 430 (≈ 234 µM) | 100 (≈ 54.4 µM) | 94 | 190 | CC(=O)NCCCC[C@@H]1NC(=O)[C@H](Cc2c[nH]c3c(C)cccc23)NC(=O)[C@H]([C@@H](C)O)NC(=O)[C@H](CC(N)=O)NC(=O)[C@@H]2CSSC[C@H](NC1=O)C(=O)N[C@@H](Cc1ccc(OCCN(C)C)cc1)C(=O)N[C@@H](Cc1ccc3ccccc3c1)C(=O)NC1(CCOCC1)C(=O)N[C@H](C(=O)N[C@@H](CC(N)=O)C(=O)N[C@@H](Cc1cccnc1)C(N)=O)CCC(=O)NCCCCC(=O)N2 [compound 51] ([Ava]CNT[Trp(7-Me)]K(Ac)CY(Me2NCH2CH2)[2Nal][Thp]EN[3Pal]-NH2; disulfide 2-7; lactam N-11)
